Test results: ChEMBL document CHEMBL1134080, “Indazolylamino quinazolines and pyridopyrimidines as inhibitors of the EGFr and C-erbB-2” (Bioorg Med Chem Lett, 2001)
pIC50: −log10 of the molar value.

Assays:
[1] = target: Receptor tyrosine-protein kinase erbB-2 (Rattus norvegicus, UniProt P06494); assay: Inhibition of rat Receptor protein-tyrosine kinase erbB2
[2] = target: Epidermal growth factor receptor and ErbB2 (HER1 and HER2) (Homo sapiens) (UniProt P04626+P00533); assay: Selectivity for EGF receptor and c-erbB-2; assay type: protein assay
[3] = Bioavailability in dog; assay type: ADME, organism-based, Canis lupus familiaris; conditions: in vivo
[4] = target: Proto-oncogene tyrosine-protein kinase Src (Homo sapiens, UniProt P12931); assay: Inhibition of Src kinase
Chain of Proto-oncogene tyrosine-protein kinase Src (P12931 2-536 limits assumed): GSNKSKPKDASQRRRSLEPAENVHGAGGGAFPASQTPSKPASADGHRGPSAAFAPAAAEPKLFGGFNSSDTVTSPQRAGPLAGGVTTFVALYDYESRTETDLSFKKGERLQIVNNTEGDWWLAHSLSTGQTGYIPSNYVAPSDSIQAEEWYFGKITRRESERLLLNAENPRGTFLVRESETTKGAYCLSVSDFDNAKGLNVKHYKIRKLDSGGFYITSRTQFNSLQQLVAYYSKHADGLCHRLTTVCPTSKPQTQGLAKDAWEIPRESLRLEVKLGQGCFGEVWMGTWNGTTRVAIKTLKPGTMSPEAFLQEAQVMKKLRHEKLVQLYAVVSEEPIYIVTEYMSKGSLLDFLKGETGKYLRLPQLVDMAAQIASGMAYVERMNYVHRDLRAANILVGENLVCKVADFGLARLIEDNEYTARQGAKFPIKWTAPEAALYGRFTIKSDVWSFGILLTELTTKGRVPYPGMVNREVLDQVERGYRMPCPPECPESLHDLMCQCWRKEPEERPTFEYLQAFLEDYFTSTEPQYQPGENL

[5] = Bioavailability was measured in rat; assay type: ADME, organism-based; conditions: in vivo
[6] = Half-life was measured in dog; assay type: ADME, organism-based, Canis lupus familiaris; conditions: in vivo
[7] = Half-life was measured in mouse; assay type: ADME, organism-based; conditions: in vivo
[8] = target: Cyclin-dependent kinase 2 (Homo sapiens, UniProt P24941); assay: Inhibition of Cyclin-dependent kinase 2
[9] = Half-life was measured in rat; assay type: ADME, organism-based; conditions: in vivo
[10] = target: Dual specificity mitogen-activated protein kinase kinase; MEK1/2 (Homo sapiens, UniProt P36507+Q02750); assay: Inhibition of MAPK kinase (MEK); assay type: protein assay
[11] = Pharmacokinetic property (Plasma clearance) was measured in mouse; assay type: ADME, organism-based
MRC5 = assay: Inhibition of MRC5 cell proliferation; assay type: functional, cell-based; conditions: Homo sapiens
[12] = Pharmacokinetic property (Plasma clearance) was measured in dog; assay type: ADME, organism-based, Canis lupus familiaris
HB4a = assay: Inhibition of RAS overexpressing HB4a.R4.2 cell proliferation; assay type: functional, cell-based; conditions: Homo sapiens
[13] = target: RAF proto-oncogene serine/threonine-protein kinase (Homo sapiens, UniProt P04049); assay: Inhibition of Raf kinase
Chain of RAF proto-oncogene serine/threonine-protein kinase (P04049 whole entry): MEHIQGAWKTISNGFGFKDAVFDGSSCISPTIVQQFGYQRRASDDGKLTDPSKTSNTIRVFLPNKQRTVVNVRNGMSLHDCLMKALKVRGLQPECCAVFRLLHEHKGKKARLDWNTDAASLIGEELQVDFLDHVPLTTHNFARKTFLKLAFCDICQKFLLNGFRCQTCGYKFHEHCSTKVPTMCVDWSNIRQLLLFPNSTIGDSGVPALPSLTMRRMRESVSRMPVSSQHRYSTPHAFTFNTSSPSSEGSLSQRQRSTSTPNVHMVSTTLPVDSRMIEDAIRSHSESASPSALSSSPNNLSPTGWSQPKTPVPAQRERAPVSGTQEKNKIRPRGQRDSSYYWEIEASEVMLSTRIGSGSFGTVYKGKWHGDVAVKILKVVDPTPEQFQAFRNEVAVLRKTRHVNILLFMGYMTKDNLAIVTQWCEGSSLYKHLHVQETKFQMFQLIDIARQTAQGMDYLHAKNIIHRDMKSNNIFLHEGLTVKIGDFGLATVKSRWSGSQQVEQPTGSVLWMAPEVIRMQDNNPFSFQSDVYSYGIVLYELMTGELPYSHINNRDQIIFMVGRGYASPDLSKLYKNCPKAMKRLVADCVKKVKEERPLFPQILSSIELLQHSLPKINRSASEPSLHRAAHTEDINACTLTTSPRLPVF

[14] = Pharmacokinetic property (Plasma clearance) was measured in rat; assay type: ADME, organism-based
[15] = Bioavailability was measured in mouse; assay type: ADME, organism-based; conditions: in vivo
[16] = target: Cyclin-dependent kinase 1 (Homo sapiens, UniProt P06493); assay: Inhibition of Cyclin-dependent kinase 1
Chain of Cyclin-dependent kinase 1 (P06493 whole entry): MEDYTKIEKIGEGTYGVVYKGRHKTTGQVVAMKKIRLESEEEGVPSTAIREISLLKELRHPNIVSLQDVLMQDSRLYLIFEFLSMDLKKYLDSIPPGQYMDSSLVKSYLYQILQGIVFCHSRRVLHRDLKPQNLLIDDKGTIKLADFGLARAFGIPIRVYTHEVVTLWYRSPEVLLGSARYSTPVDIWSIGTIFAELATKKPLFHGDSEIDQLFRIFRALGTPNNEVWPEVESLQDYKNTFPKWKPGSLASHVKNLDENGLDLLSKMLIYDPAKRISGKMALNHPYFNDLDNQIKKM

Chain of Receptor tyrosine-protein kinase erbB-2 (P06494 whole entry): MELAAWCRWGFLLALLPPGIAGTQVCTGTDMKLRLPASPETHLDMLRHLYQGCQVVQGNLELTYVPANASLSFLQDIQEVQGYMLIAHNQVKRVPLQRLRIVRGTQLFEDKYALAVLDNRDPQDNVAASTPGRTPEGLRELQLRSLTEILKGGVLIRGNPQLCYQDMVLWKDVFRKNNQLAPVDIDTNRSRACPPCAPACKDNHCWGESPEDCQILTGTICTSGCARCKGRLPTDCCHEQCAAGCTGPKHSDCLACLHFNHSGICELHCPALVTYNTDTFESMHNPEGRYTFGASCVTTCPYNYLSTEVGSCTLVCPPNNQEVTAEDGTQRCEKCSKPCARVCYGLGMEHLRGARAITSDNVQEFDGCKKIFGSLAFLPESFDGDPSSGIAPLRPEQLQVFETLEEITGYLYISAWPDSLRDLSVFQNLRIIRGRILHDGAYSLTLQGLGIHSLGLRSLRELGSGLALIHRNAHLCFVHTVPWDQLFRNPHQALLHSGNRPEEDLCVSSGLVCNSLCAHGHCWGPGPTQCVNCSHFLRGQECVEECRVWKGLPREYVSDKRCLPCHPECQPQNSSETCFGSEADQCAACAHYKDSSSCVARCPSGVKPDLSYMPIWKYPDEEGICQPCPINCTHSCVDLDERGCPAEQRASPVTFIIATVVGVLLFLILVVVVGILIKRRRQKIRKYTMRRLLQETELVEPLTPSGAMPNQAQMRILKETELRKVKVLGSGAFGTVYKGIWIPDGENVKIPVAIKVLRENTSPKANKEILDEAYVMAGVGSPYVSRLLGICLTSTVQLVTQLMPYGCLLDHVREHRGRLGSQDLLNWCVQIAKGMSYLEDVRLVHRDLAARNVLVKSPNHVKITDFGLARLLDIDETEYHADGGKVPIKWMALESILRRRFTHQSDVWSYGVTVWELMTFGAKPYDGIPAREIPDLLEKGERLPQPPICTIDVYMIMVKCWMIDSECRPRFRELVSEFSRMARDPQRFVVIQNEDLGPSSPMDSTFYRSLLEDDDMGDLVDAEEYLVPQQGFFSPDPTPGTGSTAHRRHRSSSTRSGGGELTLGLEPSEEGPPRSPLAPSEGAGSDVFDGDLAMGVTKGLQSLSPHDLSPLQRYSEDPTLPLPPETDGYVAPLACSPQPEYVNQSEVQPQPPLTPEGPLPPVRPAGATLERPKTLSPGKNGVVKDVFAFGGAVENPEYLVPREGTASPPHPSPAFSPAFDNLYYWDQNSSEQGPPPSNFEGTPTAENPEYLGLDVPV

Row | SMILES | pIC50 [1] | Selectivity [2] | other results
1 | COc1cc2ncnc(Nc3ccc4nn(Cc5ccccc5)cc4c3)c2cc1OC | 6.54 | 8.9 | 
2 | COc1cc2ncnc(Nc3ccc4nc(Cc5ccccc5)[nH]c4c3)c2cc1OC | 8.00 | 19 | 
3 | c1ccc(Cn2cnc3ccc(Nc4ncnc5ccccc45)cc32)cc1 | 5.36 | 27 | 
4 | CN(C)c1cc2c(Nc3ccc4c(cnn4Cc4ccccc4)c3)ncnc2cn1 [GW282974X] | 7.74 |  | bioavailability [3]: 82%; pIC50 [4]: < 4.30; bioavailability [5]: 24%; half-life [6]: 44 min; half-life [7]: 20 min; pIC50 [8]: < 5.10; half-life [9]: 18 min; IC50 [10]: 9700 nM; clearance [11]: > 27 mL/min/kg; pIC50 (MRC5): < 4.30; clearance [12]: 34 mL/min/kg; pIC50 (HB4a): 4.52; pIC50 [13]: 4.31; clearance [14]: 19 mL/min/kg; bioavailability [15]: > 23%; pIC50 [16]: < 5.10
5 | c1ccc(Cc2nc3ccc(Nc4ncnc5ccccc45)cc3[nH]2)cc1 | 6.25 | 36 | 
6 | Nc1cc2c(Nc3ccc4c(ccn4Cc4ccccc4)c3)ncnc2cn1 | 7.59 |  | 
7 | c1ccc(Cn2ccc3cc(Nc4ncnc5ccccc45)ccc32)cc1 | 7.05 |  | 
8 | COc1cc2ncnc(Nc3ccc4c(ccn4Cc4ccccc4)c3)c2cc1OC | 7.31 | 12.5 | 

Continued by rising pIC50 [1], values first:

Row | pIC50 [1] | Selectivity [2] | SMILES | other results
9 | 5.18 | 39 | c1ccc(Cn2cnc3cc(Nc4ncnc5ccccc45)ccc32)cc1 | 
10 | 7.31 | 18.5 | Nc1cc2c(Nc3ccc4[nH]c(Cc5ccccc5)nc4c3)ncnc2cn1 | 
11 | 7.57 | > 5.6 | Nc1cc2c(Nc3ccc4c(cnn4Cc4ccccc4)c3)ncnc2cn1 | 
12 | 8.00 |  | c1ccc(Cn2ncc3cc(Nc4ncnc5ccccc45)ccc32)cc1 | 
13 | 9.00 | > 5.6 | COc1cc2ncnc(Nc3ccc4c(cnn4Cc4ccccc4)c3)c2cc1OC | 
